Measured values: patent US20060025566A1, “Macrocyclic modulators of the ghrelin receptor” (Tranzyme Pharma Inc., priority 2003, published 2006)
Read-outs that look alike come from different tables or passages of the source.

Tests used:
[1] = system: gastric emptying in fasted rats; assay: Gastric emptying in fasted rats (phenol red methylcellulose meal); format: in vivo, rat
Protocol: To examine the effects of compounds of the invention in a model for gastroparesis, compounds were evaluated for possible effects on gastric emptying in fasted rats.
GHRP-6 and test samples were dissolved in vehicle of 9% HPBCD/0.9% NaCl. Immediately following oral administration of methylcellulose (2%) containing phenol red (0.05%) (2 mL/rat), test substances or vehicle (9% HPBCD/0.9% NaCl) were each administered intravenously (i.v.) at a dosing volume of 5 mL/kg.
Male Wistar rats were provided by LASCO (A Charles River Licensee Corporation, Taiwan). Space allocation for 6 animals was 45×23×15 cm. Animals were housed in APEC® cages and maintained in a controlled temperature (22° C.-24° C.) and humidity (60%-80%) environment with 12 h light, 12 h dark cycles for at least one week in the laboratory prior to being used. Free access to standard lab chow for rats (Lab Diet, Rodent Diet, PMI Nutrition International, USA) and tap water was granted. All aspects of this work including housing, experimentation and disposal of animals were performed in general accordance with the Guide for the Care and Use of Laboratory Animals (National Academy Press, Washington, D.C., 1996).
Test substances were each administered intravenously to a group of 5 O/N-fasted Wistar derived male rats weighing 200±20 g immediately after methylcellulose (2%) containing phenol red (0.05%) was administered orally at 2 mL/animal. […] Following protein precipitation by 20% trichloroacetic acid (0.5 mL) and re-alkalization of the supernatant with 0.1 N NaOH, total phenol red remaining in the stomach was determined by a colorimetric method at 560 nm. A 30 percent or more (≧30%) increase in gastric emptying, detected as the decrease in phenol red concentration in the stomach relative to the vehicle control group, is considered significant.
• 1. […] Total phenol red remaining in the stomach was quantified by a colorimetric method at 560 nm. • 5. A >30% increase in gastric emptying, detected based on the phenol red concentration in comparison to the control group, is considered significant. […]

[2] = system: morphine-treated rats; assay: Model of opioid-delayed gastric emptying and gastrointestinal transit (morphine) in rats; format: in vivo, rat; conditions: 3 mg/kg s.c., FIG. 16A
From the text: 7. The Effect of Compounds of the Invention on Gastric Emptying and Gastrointestinal Transit in a Model of Opioid-Delayed Gastric Emptying
Opioid analgesics, such as morphine, are well known to delay gastrointestinal transit which is an important side-effect for this class of drugs. The clinical term for this syndrome is opioid bowel dysfunction (OBD). Importantly, patients recovering from abdominal surgery experience post-operative ileus that is further exacerbated by concomitant opioid therapy for post-surgical pain.
• 1. […] Methods • 1. Rats (male, Sprague-Dawley, 250-300 g) are implanted with jugular vein catheters to accommodate dosing of test articles. • 2. Overnight-fasted rats are administered morphine (3 mg/kg s.c.). • 3. […] Radioactivity (^99mTc) in each tissue isolate is measured as a means of measuring the transit of the meal. Results

[3] = target: human ghrelin receptor (hGHS-R1a) (Homo sapiens, UniProt Q92847); assay: Aequorin functional assay (ghrelin receptor), CHO-K1 cells co-expressing Gα16 and aequorin; format: cell-based; conditions: functional (agonist) activity, standard method; TFA salts unless otherwise noted
From the text: Coelenterazine (Molecular Probes, Leiden, The Netherlands). […] Compound Handling
• 1. […] Key Aspects of Method • 1. […] Results

[4] = target: motilin receptor (Homo sapiens, UniProt O43193); assay: Selectivity for the ghrelin receptor versus the motilin receptor; format: binding
From the text: The level of agonist activity and selectivity for representative compounds of the invention are shown below in Table 4.

[5] = target: T1, human growth hormone secretagogue receptor (hGHS-R1a) (Homo sapiens, UniProt Q92847); assay: Competitive radioligand binding assay (ghrelin receptor), [125I]-ghrelin displacement on GHS-R/HEK 293 membranes; conditions: read-out: Ki
T1 construct: purchased PerkinElmer BioSignal #RBHGHSM, lot#1887; host or cells: HEK-293, stably transfected (membranes)

[6] = Pharmacokinetic analysis in rats (i.v., s.c., p.o.); format: in vivo; conditions: rat, typical dose 2 mg/kg
Protocol: D. Pharmacokinetic Analysis of Representative Compounds of the Invention
Typical Dose • 1. Intravenous (i.v.): 2 mg/kg • 2. Subcutaneous (s.c): 2 mg/kg
Plasma Collection • 1. Same protocol for all dosing groups • 2.
Whole blood samples were chilled and immediately processed by centrifugation to obtain plasma.
Plasma samples were stored frozen (−70° C.) until analysis.

[7] = binding activity at the human ghrelin receptor, [125I]-ghrelin competition, GHS-R/HEK 293 membranes
[8] = binding activity, standard method, TFA salts unless otherwise noted

Chain of human ghrelin receptor (hGHS-R1a) (Q92847 whole entry): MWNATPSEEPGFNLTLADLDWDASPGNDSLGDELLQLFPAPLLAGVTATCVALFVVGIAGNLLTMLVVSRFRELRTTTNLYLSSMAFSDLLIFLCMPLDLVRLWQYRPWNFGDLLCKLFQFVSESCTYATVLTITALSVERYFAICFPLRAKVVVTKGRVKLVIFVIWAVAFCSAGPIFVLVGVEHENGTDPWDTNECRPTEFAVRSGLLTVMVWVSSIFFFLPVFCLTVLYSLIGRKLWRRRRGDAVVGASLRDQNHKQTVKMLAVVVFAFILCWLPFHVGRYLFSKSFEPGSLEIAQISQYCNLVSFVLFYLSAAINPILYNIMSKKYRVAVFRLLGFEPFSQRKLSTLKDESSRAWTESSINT
T1 sequence (Q92847 whole entry): as above
Chain of motilin receptor (O43193 whole entry): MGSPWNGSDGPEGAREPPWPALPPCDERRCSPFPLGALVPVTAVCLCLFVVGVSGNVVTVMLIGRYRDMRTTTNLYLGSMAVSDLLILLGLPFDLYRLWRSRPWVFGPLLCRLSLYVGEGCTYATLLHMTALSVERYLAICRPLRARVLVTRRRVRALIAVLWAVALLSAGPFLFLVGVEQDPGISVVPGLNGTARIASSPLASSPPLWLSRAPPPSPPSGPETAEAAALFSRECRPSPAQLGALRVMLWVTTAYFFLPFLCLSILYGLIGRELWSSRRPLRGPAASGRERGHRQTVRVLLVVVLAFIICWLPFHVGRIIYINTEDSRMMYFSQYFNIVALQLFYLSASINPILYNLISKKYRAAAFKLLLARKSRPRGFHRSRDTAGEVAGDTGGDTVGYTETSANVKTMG

SMILES	EC50 [3]	Selectivity [4]	Ki [5, 7]	Ki [5, 8]	other results
CCN(CC)CCNC(=O)c1cc(Cl)c(N)cc1OC [Metoclopramide, reference compound]	–	–	–	–	gastric emptying of a solid meal in naïve rat ([1]; i.v. immediately after meal, FIG. 14): significant gastric emptying
CN1CC[C@]23c4c5ccc(O)c4O[C@H]2[C@@H](O)C=C[C@H]3[C@H]1C5 [Morphine, morphine]	–	–	–	–	gastric emptying and intestinal transit [2]: significantly delayed gastric emptying and intestinal transit
C[C@@H]1C(=O)N[C@H](Cc2ccccc2)C(=O)NCCCc2ccccc2OCCN[C@@H](C2CC2)C(=O)N1C [compound 17]	1 to 100 nM	2500/1	0.1 to 10 nM	0.1 to 10 nM	–
CC(C)CC1NCCOc2ccccc2C=CCNC(=O)C(Cc2cccc(Cl)c2)NC(=O)C2(CCCC2)NC1=O (stereo not shown) [compound 21]	1 to 100 nM	1078/1	0.1 to 10 nM	0.1 to 10 nM	–
CCC(C)C1NCCOc2ccccc2CCCNC(=O)C(Cc2ccc(Cl)cc2)NC(=O)C(C)N(C)C1=O (stereo not shown) [compound 25]	–	–	0.1 to 10 nM	–	gastric emptying ([1]; fasted rats, 30 μg/kg): demonstrated gastric emptying; increase in gastric emptying relative to the vehicle control group ([1]; fasted rats, 100 μg/kg i.v.): 39%; Clearance [6]: 67 mL/min/kg; Elimination (t1/2, min) [6]: 31 min
CC[C@H](C)[C@@H]1NCCOc2ccccc2CCCNC(=O)[C@@H](Cc2ccc(F)cc2)NC(=O)[C@@H](C)N(C)C1=O [compound 26]	1 to 100 nM	>7700/1	0.1 to 10 nM	0.1 to 10 nM	–
CCC(C)C1NCCOc2ccccc2CCCNC(=O)C(Cc2ccc(OC)cc2)NC(=O)C(C)N(C)C1=O (stereo not shown) [compound 27]	1 to 100 nM	>7100/1	0.1 to 10 nM	0.1 to 10 nM	–
CC[C@H](C)[C@@H]1NCCOc2ccccc2CCCNC(=O)[C@@H](Cc2ccc3ccccc3c2)NC(=O)[C@@H](C)N(C)C1=O [compound 31]	1 to 100 nM	4900/1	0.1 to 10 nM	0.1 to 10 nM	–
CC1C(=O)NC(Cc2ccc(Cl)cc2Cl)C(=O)NCCCc2ccccc2OCCNC(C2CC2)C(=O)N1C (stereo not shown) [compound 314]	1 to 100 nM	>5500/1	–	0.1 to 10 nM	Ki ([5]; binding activity at the human ghrelin receptor, [125I]-ghrelin displacement): 0.1 to 10 nM
